# Structures can show the parent of a compound that is named as a salt.
# What was measured:
# rats = assay: Lung function assay (forced expiratory maneuvers after ovalbumin challenge); type: in vivo; settings: 5 hr before antigen challenge
# Procedure: Two fasted Sprague Dawley rats were dosed orally at 10 mpk with compound in 0.4% HPMC vehicle. The dose volume was 5 ml/kg dose. Plasma was collected at 0.5, 1, 2, 3, 4, and 6 hr. Blood samples were collected with heparin, and the plasma was stored with EDTA.
# Lung function was measured using a forced expiratory maneuvers technique. In this procedure, the rats were anesthetized and a tracheal catheter was inserted. The rats were placed inside a whole body plethysmograph that contained a breathing valve capable of separating inflations and deflations of the lungs. The lungs were then subject to forced inflation of the lungs to total lung capacity followed by rapid deflation to residual volume. Measurements of forced vital capacity and peak expiratory flow were used to measure the effects of antigen challenge and assess the inhibitory effects of the compound of formula I. The drug was admixed with lactose for intratracheal delivery and given directly into the trachea with a fine microsprayer 5 hr before the antigen challenge. Orally delivered compound was given in 0.4% methylcellulose vehicle 5 hr before the antigen challenge. Control animals received intratracheal lactose or methylcellulose, respectively. The antigen challenge consisted of aerosolized exposure for 30 min to 1% ovalbumin. Forced expiratory lung functions were measured 24 hr after the antigen (ovalbumin) exposure.
# [1] = Physical properties of salts of Compound A (hygroscopicity, hydrate stability); type: physicochemical; settings: solid salt
# Rat PK assay = type: in vivo, Sprague Dawley rats; settings: Sprague Dawley, plasma, 30 mg/kg, 30 mpk po
# Procedure: Using the above test procedure, the following results were obtained: • tartrate salt: monkey AUC=30 ng.h/mL at 10 mpk po • xinafoate salt: monkey AUC=0 ng.h/mL at 10 mpk po Assay Protocol for Rat PK Assay:
# […] The dose volume was 5 ml/kg dose. Plasma was collected at 0.5, 1, 2, 3, 4, and 6 hr. Blood samples were collected with heparin, and the plasma was stored with EDTA.
# inflammatory cells = assay: Allergic Brown-Norway rat assay: inhibition of recruitment of inflammatory cells into the airways (BALF cell counts after OVA challenge); type: in vivo, Brown-Norway rats
# Procedure: Assay Protocol for Allergic Brown-Norway Rats:
# Inbred male BN rats weighing 150 to 200 g were obtained from Charles River Laboratory (Wilmington, Mass.). Prior to use, the animals were allowed food and water ad libitum. The test compounds were administered 5 h prior to antigen challenge either by oral or inhalational route, as detailed in the “delivery of test compounds” section.
# Sensitization and Antigen Bronchoprovocation
# The animals were divided into two main groups viz. an alum group and an antigen group. In the antigen group, animals were sensitized by an intra-peritoneal (i.p.) injection of 1 ml alum-precipitated antigen containing 20 μg of ovalbumin (OVA, grade III; Sigma chemical Co., St Louis, Mo.) and 8 mg of Al(OH)3 suspended in 0.9% saline vehicle. A booster injection of this alum-OVA mixture was given again 7 days later. Animals belonging to the alum group received injections containing alum only. Seven days after the second injection, animals were exposed to aerosolized antigen bronchoprovocation which was performed by placing the rats in an enclosed plexiglass chamber (21 liters) and exposing the rats to aerosolized OVA (1%) for 30 min. The aerosolized OVA was produced by an ultrasonic nebulizer (DeVilbiss, Somerset, Pa., USA; Model Ultra-Neb 99) at a flow rate of approximately 8 liters/min. […]
Molecule,inhibition of forced vital capacity (FVC) (rats; 0.02 mpk it (intra-tracheal)) [%],inhibition of forced vital capacity (FVC) (rats; 3 mpk po) [%],hygroscopicity [1],AUC (Rat PK assay) [ng·h/mL],"inhibition of inflammatory cells (inflammatory cells; 0.02 mpk, intra-tracheal dosing, 5 h prior to antigen challenge, allergic BN rats) [%]",better inhibition of inflammatory cells via intra-trachea administration compared to oral administration (inflammatory cells; intra-trachea vs oral administration) [fold],stability of crystalline forms [1]
"CCOC(=O)[C@@H]1C[C@@H](NC(=O)C2CC2)CN1C(=O)c1nc(-c2ccc(OC)c3nc(C(F)(F)F)ccc23)oc1[C@H](C)N [xinafoate salt, xinafoate salt of 1-[[5-(1(S)-aminoethyl)-2-[8-methoxy-2-(trifluoromethyl)5-quinolyl]-4-oxazolyl]carbonyl]-4(R)-[(cyclopropyl-carbonyl)amino]-L-proline, ethyl ester]",54,31,non-hygroscopic,350,69,25,
fumarate,,,,,,,unstable hydrates

# Source: US7919505B2, “Xinafoate salt of a substituted 5-oxazol-2-yl-quinoline compound” (Schering Corporation, priority 2006, dated 2011)
